For twelve molecules, T/C results are on record in PubChem BioAssay AID212 (DTP/NCI, 2004).

Values joined by “and” are separate entries in the source; they are usually repeats but may differ in a detail not shown here. Equal entries are not always repeated. Records with an inconclusive call do not appear.

For the experiment, the system named is BDF1 mice, colon carcinoma 38 sc, T/C %. The experiment can be described thus: NCI In Vivo Anticancer Drug Screen. Data for tumor model Colon Carcinoma 38 (subcutaneous) in B6D2F1 (BDF1) mice. Particulars: endpoint: median tumor weight (est.), higher = larger tumour. As for the experimental part:
The antitumor activity of compounds was measured in mice bearing transplantable tumors. Survival or tumor size were measured and the results are expressed as the measurement made in the treated group (T) divided by the measurement made in the vehicle treated control group (C). The tumor model used in this assay is Colon Carcinoma 38 (subcutaneous) in B6D2F1 (BDF1) mice

[1] abbreviates: dose: 25.0 mg/kg/injection, schedule: Q07DX002 (ip), vehicle: saline with Tween-80.
[2] abbreviates: dose: 200.0 mg/kg/injection, schedule: Q07DX002 (ip), vehicle: saline with Tween-80.
Where [3] appears, read: dose: 400.0 mg/kg/injection, schedule: Q07DX002 (ip), vehicle: saline with Tween-80.
Setting [4] is: dose: 25.0 mg/kg/injection, schedule: Q07DX002 (ip), vehicle: Klucel (hydroxypropylcellulose) (HPC).
Setting [5] is: dose: 50.0 mg/kg/injection, schedule: Q07DX002 (ip), vehicle: Klucel (hydroxypropylcellulose) (HPC).
The mark [6] stands for this setting: dose: 200.0 mg/kg/injection, schedule: Q07DX002 (ip), vehicle: Klucel (hydroxypropylcellulose) (HPC).

Take `O=NN(CCCl)C(=O)NCCCl`: the T/C is 92 % of control (dose: 1.0 mg/kg/injection, schedule: Q07DX002 (ip), vehicle: saline with Tween-80); 66 % of control (dose: 2.5 mg/kg/injection, schedule: Q07DX002 (ip), vehicle: saline with Tween-80); 96 % of control (dose: 3.0 mg/kg/injection, schedule: Q07DX002 (ip), vehicle: saline + alcohol); 82 % of control (dose: 4.0 mg/kg/injection, schedule: Q07DX002 (ip), vehicle: saline with Tween-80); 97 % of control and 98 % of control (dose: 4.0 mg/kg/injection, schedule: Q07DX003 (ip), vehicle: saline with Tween-80); 82 % of control (dose: 5.0 mg/kg/injection, schedule: Q07DX002 (ip), vehicle: saline with Tween-80). Moreover, the T/C is, setting by setting: (dose: 6.0 mg/kg/injection, schedule: Q07DX002 (ip), vehicle: saline + alcohol) 88 % of control; (dose: 8.0 mg/kg/injection, schedule: Q07DX003 (ip), vehicle: saline with Tween-80) 71 % of control and 87 % of control; (dose: 10.0 mg/kg/injection, schedule: Q07DX002 (ip), vehicle: saline with Tween-80) 43 % of control; (dose: 12.0 mg/kg/injection, schedule: Q07DX002 (ip), vehicle: saline + alcohol) 59 % of control; (dose: 20.0 mg/kg/injection, schedule: Q07DX002 (ip), vehicle: saline with Tween-80) 15 % of control; (dose: 24.0 mg/kg/injection, schedule: Q07DX002 (ip), vehicle: saline + alcohol) 37 % of control. Further, where the note is “dose: 32.0 mg/kg/injection, schedule: Q07DX003 (ip), vehicle: saline with Tween-80”, the T/C was 24 % of control.
On to `N=C(N)Sc1cc(O)ccc1O`, for which the T/C was 88 % of control (dose: 12.5 mg/kg/injection, schedule: Q07DX003 (ip), vehicle: saline); 66 % of control (dose: 25.0 mg/kg/injection, schedule: Q07DX003 (ip), vehicle: saline); 77 % of control (dose: 50.0 mg/kg/injection, schedule: Q07DX003 (ip), vehicle: saline); 103 % of control (dose: 100.0 mg/kg/injection, schedule: Q07DX003 (ip), vehicle: saline); 55 % of control (dose: 200.0 mg/kg/injection, schedule: Q07DX003 (ip), vehicle: saline).
Turning to `CNc1cccnc1/C=N/NC(N)=S`, the T/C is, setting by setting: under setting [1], 119 % of control; (dose: 50.0 mg/kg/injection, schedule: Q07DX002 (ip), vehicle: saline with Tween-80) 95 % of control; under setting [2], 45 % of control and 66 % of control; under setting [3], 32 % of control and 33 % of control.
For `O=C(O)CC(=O)O.[NH-]C1CCCCC1[NH-].[Pt+2]` (stereo not drawn), the T/C by setting is: (dose: 12.5 mg/kg/injection, schedule: Q07DX002 (ip), vehicle: dextrose) 84 % of control; (dose: 20.0 mg/kg/injection, schedule: Q07DX003 (ip), vehicle: dextrose) 120 % of control; (dose: 25.0 mg/kg/injection, schedule: Q07DX002 (ip), vehicle: dextrose) 55 % of control and 64 % of control; (dose: 40.0 mg/kg/injection, schedule: Q07DX003 (ip), vehicle: dextrose) 48 % of control; (dose: 50.0 mg/kg/injection, schedule: Q07DX002 (ip), vehicle: dextrose) 12 % of control and 35 % of control; (dose: 80.0 mg/kg/injection, schedule: Q07DX003 (ip), vehicle: dextrose) 9 % of control.
Turning to `Cc1ccc(Cl)c2ccccc12`, the T/C is 96 % of control and 102 % of control (dose: 12.5 mg/kg/injection, schedule: Q07DX002 (ip), vehicle: saline with Tween-80); 92 % of control under setting [1]; 89 % of control and 96 % of control (dose: 100.0 mg/kg/injection, schedule: Q07DX002 (ip), vehicle: saline with Tween-80); 88 % of control and 96 % of control under setting [2]; 87 % of control under setting [3].
On to `COc1cccc2c1C(CO)N1C(C#N)C3CC(C(=O)O)C(C1C2)N3C` (stereo not drawn), for which the T/C is 71 % of control (dose: 6.25 mg/kg/injection, schedule: Q07DX002 (ip), vehicle: saline); 45 % of control (dose: 12.5 mg/kg/injection, schedule: Q07DX002 (ip), vehicle: saline); 108 % of control (dose: 25.0 mg/kg/injection, schedule: Q07DX002 (ip), vehicle: saline); 80 % of control (dose: 50.0 mg/kg/injection, schedule: Q07DX002 (ip), vehicle: saline); 66 % of control (dose: 100.0 mg/kg/injection, schedule: Q07DX002 (ip), vehicle: saline).
Turning to `C/C=C/C1=CC(=O)C(O)C1O` (stereo not drawn), the T/C (dose: 90.0 mg/kg/injection, schedule: Q07DX002 (ip), vehicle: water) was 75 % of control and the T/C (dose: 180.0 mg/kg/injection, schedule: Q07DX002 (ip), vehicle: water) is 170 % of control.
Take `Cc1ccc(C2NC(=O)c3ccccc3N2)s1` (stereo not drawn): the T/C under setting [4] is 99 % of control; the T/C under setting [5] is 92 % of control; the T/C (dose: 100.0 mg/kg/injection, schedule: Q07DX002 (ip), vehicle: Klucel (hydroxypropylcellulose) (HPC)) is 103 % of control; the T/C under setting [6] is 92 % of control; the T/C (dose: 400.0 mg/kg/injection, schedule: Q07DX002 (ip), vehicle: Klucel (hydroxypropylcellulose) (HPC)) was 84 % of control; the T/C (dose: 800.0 mg/kg/injection, schedule: Q07DX002 (ip), vehicle: Klucel (hydroxypropylcellulose) (HPC)) is 90 % of control.
Regarding `O=c1[nH]cccc1O`, the T/C runs as follows: (dose: 32.0 mg/kg/injection, schedule: Q07DX002 (ip), vehicle: saline with Tween-80) 101 % of control; (dose: 62.0 mg/kg/injection, schedule: Q07DX002 (ip), vehicle: saline with Tween-80) 177 % of control; (dose: 62.5 mg/kg/injection, schedule: Q07DX002 (ip), vehicle: saline with Tween-80) 100 % of control; (dose: 64.0 mg/kg/injection, schedule: Q07DX002 (ip), vehicle: saline with Tween-80) 76 % of control; (dose: 125.0 mg/kg/injection, schedule: Q07DX002 (ip), vehicle: saline with Tween-80) 87 % of control; (dose: 128.0 mg/kg/injection, schedule: Q07DX002 (ip), vehicle: saline with Tween-80) 94 % of control. In addition, the T/C by setting is: (dose: 250.0 mg/kg/injection, schedule: Q07DX002 (ip), vehicle: saline with Tween-80) 87 % of control; (dose: 256.0 mg/kg/injection, schedule: Q07DX002 (ip), vehicle: saline with Tween-80) 58 % of control; (dose: 512.0 mg/kg/injection, schedule: Q07DX002 (ip), vehicle: saline with Tween-80) 20 % of control.
With `CCN1C=C/C(=C\C=C/c2cc[n+](CC)c3ccccc23)c2ccccc21`, the T/C by setting is: (dose: 0.06 mg/kg/injection, schedule: Q07DX002 (ip), vehicle: saline) 91 % of control; (dose: 0.12 mg/kg/injection, schedule: Q07DX002 (ip), vehicle: saline) 120 % of control; (dose: 62.0 micrograms/kg/injection, schedule: Q07DX002 (ip), vehicle: saline) 101 % of control; (dose: 125.0 micrograms/kg/injection, schedule: Q07DX002 (ip), vehicle: saline) 123 % of control; (dose: 250.0 micrograms/kg/injection, schedule: Q07DX002 (ip), vehicle: saline) 156 % of control.
On to `COc1cc(C(=O)c2cc3c(cc2C)OCO3)cc(OC)c1OC`, for which the T/C was 77 % of control (dose: 12.5 mg/kg/injection, schedule: Q07DX002 (ip), vehicle: Klucel (hydroxypropylcellulose) (HPC)); 75 % of control and 84 % of control under setting [4]; 112 % of control and 95 % of control under setting [5]; 79 % of control and 102 % of control under setting [6].
In the case of `NC(=S)c1cn(C2OC(CO)C(O)C2O)c2ncnc(N)c12` (stereo not drawn), the T/C is 108 % of control (dose: 1.25 mg/kg/injection, schedule: Q07DX002 (ip), vehicle: suspension in saline); 81 % of control (dose: 2.5 mg/kg/injection, schedule: Q07DX002 (ip), vehicle: suspension in saline); 104 % of control (dose: 5.0 mg/kg/injection, schedule: Q07DX002 (ip), vehicle: suspension in saline); 82 % of control (dose: 10.0 mg/kg/injection, schedule: Q07DX002 (ip), vehicle: suspension in saline).
